For 28 compounds, IC50 results are on record in patent US20240317721A1, “PYRAZOLYL DERIVATIVES AS INHIBITORS OF THE KRAS MUTANT PROTEIN” (NOVARTIS AG, priority 2021, published 2024).

The assay addresses KRasG12C (M1-K169, biotinylated on the N-terminus) (Homo sapiens (Human), UniProt P01116, G12C). Kind of assay: Covalent competition assay: scintillation proximity assay (SPA) quantifying covalent modification of KRASG12C. In kind it is binding. Particulars: competition with radiolabeled covalent probe (Compound B/Compound A), 2 hours incubation, 10 nM KRasG12C. Summed up: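 Test compounds compete with a radiolabeled covalent probe for modification of N-terminally biotinylated KRasG12C(M1-K169):GDP, final 10 nM protein, 25 nM radio-ligand, 475 nM unlabelled ligand, 2 h with agitation in 20 mM Tris-HCl pH 7.5, 150 mM NaCl, 0.1 mM MgCl2, 0.01% Tween-20.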
(SPA uses beads or plates that emit light when radiolabelled molecules are held near them.)
For `C=CC(=O)N1CC2(CC(n3nc(N4CC[C@@H](CN5CC(O)C(OC)C5)CC4(C)C)c(-c4c(Cl)c(Cl)cc5[nH]ncc45)c3C)C2)C1` (single isomer, unassigned) [Example 274a, 1-(6-(4-(5,6-dichloro-1H-indazol-4-yl)-3-((R)-4-(((3S*,4S*)-3-hydroxy-4-methoxypyrrolidin-1-yl)methyl)-2,2-dimethylpiperidin-1-yl)-5-methyl-1H-pyrazol-1-yl)-2-azaspiro[3.3]heptan-2-yl)prop-2-en-1-one], the IC50 (as a rule, the midpoint of a concentration-inhibition curve) was 795 nM.
Turning to `C=CC(=O)N1CC2(CC(n3nc(N4CCN(C5CCOCC5)CC45CCC5)c(-c4c(Cl)c(C)cc5[nH]ncc45)c3C)C2)C1` (single isomer, unassigned) [Example 130b, 1-(6-(4-(5-Chloro-6-methyl-1H-indazol-4-yl)-5-methyl-3-(8-(tetrahydro-2H-pyran-4-yl)-5,8-diazaspiro[3.5]nonan-5-yl)-1H-pyrazol-1-yl)-2-azaspiro[3.3]heptan-2-yl)prop-2-en-1-one], the IC50 is 32 nM.
Take `C=CC(=O)N1CC2(CC(n3nc(N4CCN(C(C)=O)CC4)c(-c4c(Cl)ccc5[nH]ncc45)c3C)C2)C1C` (single isomer, unassigned) [Example 195a, 1-(6-(3-(4-Acetylpiperazin-1-yl)-4-(5-chloro-1H-indazol-4-yl)-5-methyl-1H-pyrazol-1-yl)-1-methyl-2-azaspiro[3.3]heptan-2-yl)prop-2-en-1-one]: the IC50 is 10400 nM.
`C=CC(=O)N1CC2(CC(n3nc(N4CCCc5c(cnn5C)C4)c(-c4c(Cl)c(C)cc5[nH]ncc45)c3C)C2)C1` (single isomer, unassigned) [Example 43a, 1-(6-(4-(5-chloro-6-methyl-1H-indazol-4-yl)-5-methyl-3-(1-methyl-4,6,7,8-tetrahydropyrazolo[4,3-c]azepin-5(1H)-yl)-1H-pyrazol-1-yl)-2-azaspiro[3.3]heptan-2-yl)prop-2-en-1-one]: the concentration for half-maximal inhibition (IC50) was greater than 50000 nM.
On to `C=CC(=O)N1CC2(CC(n3nc(N4CCN(C[C@H]5COCCO5)CC45CCC5)c(-c4c(Cl)c(C)cc5[nH]ncc45)c3C)C2)C1` (single isomer, unassigned) [Example 189b], for which the IC50 was determined as 15 nM.
On to `C=CC(=O)N1CC2(CC(n3nc(N4CCN(C(C)=O)CC4(C)C)c(-c4c(C)c(C)cc5[nH]ncc45)c3C)C2)C1` (single isomer, unassigned) [Example 1a, 1-(6-(3-(4-Acetyl-2,2-dimethylpiperazin-1-yl)-4-(5,6-dimethyl-1H-indazol-4-yl)-5-methyl-1H-pyrazol-1-yl)-2-azaspiro[3.3]heptan-2-yl)prop-2-en-1-one], for which the IC50 is 86 nM.
Take `C=CC(=O)N1CC2(CC(n3nc(N4CC[C@@H](CN5CC6(O)CC5C6)CC4(C)C)c(-c4c(Cl)c(Cl)cc5[nH]ncc45)c3C)C2)C1` (single isomer, unassigned) [Example 293b]: the IC50 was found to be 10 nM.
In the case of `C=CC(=O)N1CC2(CC(n3nc(N4CCC(N(C)[C@@H]5CCOC5)CC4(C)C)c(-c4c(Cl)c(C)cc5[nH]ncc45)c3C)C2)C1` (single isomer, unassigned) [Example 84a], the IC50 is greater than 5000 nM.
On to `C=CC(=O)N1CC2(CC(n3nc(N4CC[C@@H](CN5CCN(C6COC6)C[C@@H]5COC)CC4(C)C)c(-c4c(Cl)c(Cl)cc5[nH]ncc45)c3C)C2)C1` (single isomer, unassigned) [Example 320a], for which the IC50 worked out at 3300 nM.
Regarding `C=CC(=O)N1CC2(CC(n3nc(N4CCN(C5CCOCC5)CC4(C)C)c(-c4c(Cl)c(C)cc5[nH]ncc45)c3C)C2)C1` (single isomer, unassigned) [Example 134b, 1-(6-(4-(5-chloro-6-methyl-1H-indazol-4-yl)-3-(2,2-dimethyl-4-(tetrahydro-2H-pyran-4-yl)piperazin-1-yl)-5-methyl-1H-pyrazol-1-yl)-2-azaspiro[3.3]heptan-2-yl)prop-2-en-1-one], the IC50 stood at 46 nM.
With `C=CC(=O)N1CC2(CC(n3nc(N4CC[C@@H](CN5CCN(C6COC6)CC5)CC4(C)C)c(-c4c(Cl)c(C)cc5[nH]ncc45)c3C)C2)C1` (single isomer, unassigned) [Example 246b], the IC50 turned out to be 15 nM.
Next, `C=CC(=O)N1CC2(CC(n3nc(N4CCN(CC(F)(F)F)CC4(C)C)c(-c4c(Cl)c(C)cc5[nH]ncc45)c3C)C2)C1` (single isomer, unassigned) [Example 68b, 1-(6-(4-(5-chloro-6-methyl-1H-indazol-4-yl)-3-(2,2-dimethyl-4-(2,2,2-trifluoroethyl)piperazin-1-yl)-5-methyl-1H-pyrazol-1-yl)-2-azaspiro[3.3]heptan-2-yl)prop-2-en-1-one]: 239 nM.
Regarding `C=CC(=O)N1CC2(CC(n3nc(N4CCN(C(C)=O)CC4)c(-c4c(Cl)ccc5[nH]ncc45)c3C)C2)C1C` (single isomer, unassigned) [Example 198a, 1-(6-(3-(4-acetylpiperazin-1-yl)-4-(5-chloro-1H-indazol-4-yl)-5-methyl-1H-pyrazol-1-yl)-1-methyl-2-azaspiro[3.3]heptan-2-yl)prop-2-en-1-one], the IC50 is greater than 50000 nM.
As for `C=CC(=O)N1CC2(CC(n3nc(N4CCN(C5COC5)C[C@]4(C)CC)c(-c4c(Cl)c(C)cc5[nH]nc(N)c45)c3C)C2)C1` (single isomer, unassigned) [Example 158a], the IC50 stood at 6 nM.
As to `C=CC(=O)N1CC2(CC(n3nc(N4CC[C@@H](CN5CCOCC5)CC4(C)C)c(-c4c(Cl)c(Cl)cc5[nH]ncc45)c3C)C2)C1` (single isomer, unassigned) [Example 213b], the half-inhibitory concentration (IC50) stood at 12 nM.
Turning to `C=CC(=O)N1C[C@]2(C[C@H](n3nc(N4CC[C@@H](CN5CCN(C6COC6)CC5)CC4(C)C)c(-c4c(Cl)c(Cl)cc5[nH]ncc45)c3C)C2)[C@H]1C` (single isomer, unassigned) [Example 201b], the 50% inhibitory concentration (IC50) came to 17 nM.
As for `C=CC(=O)N1CC2(CC(n3nc(N4CCN(CCOC)CC4(C)C)c(-c4c(Cl)c(C)cc5[nH]ncc45)c3C)C2)C1` (single isomer, unassigned) [Example 170b, 1-(6-(4-(5-chloro-6-methyl-1H-indazol-4-yl)-3-(4-(2-methoxyethyl)-2,2-dimethylpiperazin-1-yl)-5-methyl-1H-pyrazol-1-yl)-2-azaspiro[3.3]heptan-2-yl)prop-2-en-1-one], the IC50 was determined as 60 nM.
Consider `C=CC(=O)N1CC2(CC(n3nc(N4CC[C@@H](CN5C[C@H](O)C[C@H]5COC)CC4(C)C)c(-c4c(Cl)c(Cl)cc5[nH]ncc45)c3C)C2)C1` (single isomer, unassigned) [Example 286a], for which the IC50 turned out to be 1100 nM.
With `C=CC(=O)N1CC2(CC(n3nc(N4CCC(N5C6CCC5COC6)CC4(C)C)c(-c4c(Cl)c(C)cc5[nH]ncc45)c3C)C2)C1` (single isomer, unassigned) [Example 74b], the IC50 was 26 nM.
With `C=CC(=O)N1CC2(CC(n3nc(N4CCN(C5CCCOC5)C[C@]4(C)CC)c(-c4c(Cl)c(C)cc5[nH]ncc45)c3C)C2)C1` (single isomer, unassigned) [Example 157b], the IC50 is greater than 5000 nM.
Regarding `C=CC(=O)N1CC2(CC(n3nc(N4CCN(C(C)=O)CC4(C)C)c(-c4c(Cl)c(C)cc5[nH]ncc45)c3C)C2)C1` (single isomer, unassigned) [Example 18a, 1-(6-(3-(4-acetyl-2,2-dimethylpiperazin-1-yl)-4-(5-chloro-6-methyl-1H-indazol-4-yl)-5-methyl-1H-pyrazol-1-yl)-2-azaspiro[3.3]heptan-2-yl)prop-2-en-1-one], the IC50 was 6100 nM.
`C=CC(=O)N1CC2(CC(n3nc(N4CCN(CCO)CC45CCC5)c(-c4c(Cl)c(C)cc5[nH]ncc45)c3C)C2)C1` (single isomer, unassigned) [Example 162b, 1-(6-(4-(5-chloro-6-methyl-1H-indazol-4-yl)-3-(8-(2-hydroxyethyl)-5,8-diazaspiro[3.5]nonan-5-yl)-5-methyl-1H-pyrazol-1-yl)-2-azaspiro[3.3]heptan-2-yl)prop-2-en-1-one]: the IC50 amounted to 27 nM.
The result for `C=CC(=O)N1CC2(CC(n3nc(N4CCN(C5CCOC5)CC45CCC5)c(-c4c(Cl)c(C)cc5[nH]ncc45)c3C)C2)C1` (single isomer, unassigned) [Example 132c, 1-(6-(4-(5-chloro-6-methyl-1H-indazol-4-yl)-5-methyl-3-(8-(tetrahydrofuran-3-yl)-5,8-diazaspiro[3.5]nonan-5-yl)-1H-pyrazol-1-yl)-2-azaspiro[3.3]heptan-2-yl)prop-2-en-1-one] reads 24 nM; that for `C=CC(=O)N1CC2(CC(n3nc(N4CCN(C[C@@H]5COCCO5)C[C@]4(C)CC)c(-c4c(Cl)c(C)cc5[nH]ncc45)c3C)C2)C1` (single isomer, unassigned) [Example 173b], 5 nM.
With `C=CC(=O)N1CC2(CC(n3nc(N4CCN(CCN5CCOCC5=O)C[C@]4(C)CC)c(-c4c(Cl)c(C)cc5[nH]ncc45)c3C)C2)C1` (single isomer, unassigned) [Example 177a], the IC50 turned out to be 8 nM.
Consider `C=CC(=O)N1CC2(CC(n3nc(N4CCN(C[C@@H]5COCCO5)CC45CCC5)c(-c4c(Cl)c(Cl)cc5[nH]ncc45)c3C)C2)C1` (single isomer, unassigned) [Example 171a], for which the IC50 is greater than 5000 nM.
Turning to `C=CC(=O)N1CC2(CC(n3nc(N4CCN(C(C)=O)C5(CCC5)C4)c(-c4c(Cl)c(C)cc5[nH]ncc45)c3C)C2)C1` (single isomer, unassigned) [Example 20b, 1-(6-(3-(5-acetyl-5,8-diazaspiro[3.5]nonan-8-yl)-4-(5-chloro-6-methyl-1H-indazol-4-yl)-5-methyl-1H-pyrazol-1-yl)-2-azaspiro[3.3]heptan-2-yl)prop-2-en-1-one], the IC50 came out at 38300 nM.
Turning to `C=CC(=O)N1CC2(CC(n3nc(N4CCN(C5CCOCC5)C[C@]4(C)COC)c(-c4c(Cl)c(Cl)cc5[nH]ncc45)c3C)C2)C1` (single isomer, unassigned) [Example 150b], the IC50 is less than 5 nM.
